Measured values published in patent publication US20180185408A1, “ANTIFUNGAL NYLON-3 POLYMERS AND COMBINATION THERAPY USING THEM TO TREAT FUNGAL INFECTIONS” (priority 2016, published 2018).
Values after ≈ are worked out from the molar mass of the structure shown. Read-outs that look alike come from different tables or passages of the source.

Legend:
Format in all cases: cell-based
Candida lusitaniae [1] = assay: MIC by broth microdilution (CLSI M27-A3); details: CL3, […]10^5 cells/mL, 30°C, OD600 48 h
Candida albicans = assay: Minimum fungicidal concentration (MFC), plating after MIC assay; details: […]10^5 cells/mL
Candida lusitaniae [2] = assay: as above; details: C. Lusitania (CL3), Sensitive; RPMI 1640 (0.2% Glucose); […]10^5 cells/mL; 30° C.
Cryptococcus neoformans [3] = assay: MIC by broth microdilution (CLSI M27-A3); details: […]10^3 cells/mL
Cryptococcus gattii [4] = assay: MIC by broth microdilution (CLSI M27-A3); details: […]10^3 cells/mL
Cryptococcus neoformans [5] = assay: Minimum fungicidal concentration (MFC), plating after MIC assay; details: RPMI 1640 (0.2% Glucose), […]10^3 cells/mL, 37° C.
Cryptococcus gattii [6] = assay: as above; details: Sensitive, RPMI 1640 (0.2% Glucose), […]10^3 cells/mL, 37° C.
Candida spp. = assay: MIC and MFC by broth microdilution, summary over Candida strains; details: Candida test strains, except resistant strain E4
Cryptococcus spp. = assay: MIC and MFC by broth microdilution, summary over Cryptococcus strains

C[C@@H]1[C@H](O)[C@@H](C)/C=C/C=C/C=C/C=C/C=C/C=C/C=C/[C@H](O[C@@H]2O[C@H](C)[C@@H](O)[C@H](N)[C@@H]2O)C[C@@H]2O[C@](O)(C[C@@H](O)C[C@@H](O)[C@H](O)CC[C@@H](O)C[C@@H](O)CC(=O)O[C@H]1C)C[C@H](O)[C@H]2C(=O)O [AMB, amphotericin B]
MIC (Candida lusitaniae [1]; avg., read-out: MIC): 0.4 µM | MIC (Candida lusitaniae [1]; trial 1): 0.4 µg/mL | MIC (Candida lusitaniae [1]; trial 1, read-out: MIC): 0.4 µM | MIC (Candida lusitaniae [1]; trial 2): 0.4 µg/mL | MFC (Candida albicans; C. albicans (E4), Amp B Resistant, RPMI 1640 (0.2% Glucose), 30° C.): 12.5 µg/mL | MFC (Candida albicans; C. albicans (Gu5), Fluconazole Resistant, RPMI 1640 (0.2% Glucose), 30° C.): 1.56 µg/mL | MFC (Candida albicans; C. albicans (K1), Fluconazole Resistant, RPMI 1640 (0.2% Glucose), 30° C.): 3.13 µg/mL | MFC (Candida albicans; C. albicans (SCG5314), Sensitive, RPMI 1640 (0.2% Glucose), 30° C.): 1.56 µg/mL | MFC (Candida albicans; E4, 30°C, avg.): 12.5 µg/mL | MFC (Candida albicans; E4, 30°C, avg., read-out: MFC): 13.5 µM | MFC (Candida albicans; E4, 30°C, trial 1): 12.5 µg/mL | MFC (Candida albicans; E4, 30°C, trial 1, read-out: MFC): 13.5 µM | MFC (Candida albicans; E4, 30°C, trial 2): 12.5 µg/mL | MFC (Candida albicans; E4, 30°C, trial 2, read-out: MFC): 13.5 µM | MFC (Candida albicans; Gu5, 30°C, avg.): 1.6 µg/mL | MFC (Candida albicans; Gu5, 30°C, avg., read-out: MFC): 1.7 µM | MFC (Candida albicans; Gu5, 30°C, trial 1): 1.6 µg/mL | MFC (Candida albicans; Gu5, 30°C, trial 1, read-out: MFC): 1.7 µM | MFC (Candida albicans; Gu5, 30°C, trial 2): 1.6 µg/mL | MFC (Candida albicans; Gu5, 30°C, trial 2, read-out: MFC): 1.7 µM | MFC (Candida albicans; K1, 30°C, avg.): 3.1 µg/mL | MFC (Candida albicans; K1, 30°C, avg., read-out: MFC): 3.4 µM | MFC (Candida albicans; K1, 30°C, trial 1): 3.1 µg/mL | MFC (Candida albicans; K1, 30°C, trial 1, read-out: MFC): 3.4 µM | MFC (Candida albicans; K1, 30°C, trial 2): 3.1 µg/mL | MFC (Candida albicans; K1, 30°C, trial 2, read-out: MFC): 3.4 µM | MFC (Candida albicans; SC5314, 30°C, avg.): 1.6 µg/mL | MFC (Candida albicans; SC5314, 30°C, avg., read-out: MFC): 1.7 µM | MFC (Candida albicans; SC5314, 30°C, trial 1): 1.6 µg/mL | MFC (Candida albicans; SC5314, 30°C, trial 1, read-out: MFC): 1.7 µM | MFC (Candida albicans; SC5314, 30°C, trial 2): 1.6 µg/mL | MFC (Candida albicans; SC5314, 30°C, trial 2, read-out: MFC): 1.7 µM | MFC (Candida lusitaniae [2]): 1.56 µg/mL (≈ 1.69 µM) | MIC (Cryptococcus neoformans [3]; B3501, 30°C, […]): 0.8 µg/mL | MIC (Cryptococcus neoformans [3]; B3501, 30°C, […], Table 15): 0.9 µM | MIC (Cryptococcus neoformans [3]; C21F3, 30°C, OD600 48 h): 0.8 µg/mL | MIC (Cryptococcus neoformans [3]; C21F3, 30°C, OD600 48 h, Table 15): 0.9 µM | MIC (Cryptococcus neoformans [3]; C. neoformans (B3501), Sensitive, RPMI 1640 (0.2% Glucose), 37° C.): 0.8 µg/mL | MIC (Cryptococcus neoformans [3]; C. neoformans (B3501), 30°C): 0.9 µM | MIC (Cryptococcus neoformans [3]; C. neoformans (C21F3), 30°C): 0.9 µM | MIC (Cryptococcus neoformans [3]; C. neoformans (H99), Sensitive, RPMI 1640 (0.2% Glucose), 37° C.): 1.6 µg/mL | MIC (Cryptococcus neoformans [3]; C. neoformans (H99), 30°C): 1.7 µM | MIC (Cryptococcus neoformans [3]; C. neoformans (JEC21), Sensitive, RPMI 1640 (0.2% Glucose), 37° C.): 0.2 µg/mL | MIC (Cryptococcus neoformans [3]; C. neoformans (JEC21), 30°C): 0.2 µM | MIC (Cryptococcus neoformans [3]; H99, 30°C, OD600 48 h): 1.6 µg/mL | MIC (Cryptococcus neoformans [3]; H99, 30°C, OD600 48 h, Table 15): 1.7 µM | MIC (Cryptococcus neoformans [3]; JEC21, 30°C, OD600 48 h): 0.2 µg/mL | MIC (Cryptococcus neoformans [3]; JEC21, 30°C, OD600 48 h, Table 15): 0.2 µM | MIC (Cryptococcus neoformans [3]; […], RPMI 1640 (0.2% Glucose), 37° C.): 0.8 µg/mL | MIC (Cryptococcus gattii [4]; C751, 30°C, OD600 48 h): ≤0.2 µg/mL | MIC (Cryptococcus gattii [4]; C751, 30°C, OD600 48 h, Table 15, read-out: MIC): ≤0.2 µM | MIC (Cryptococcus gattii [4]; C. gattii (C751), Sensitive, RPMI 1640 (0.2% Glucose), 37° C.): ≤0.2 µg/mL | MIC (Cryptococcus gattii [4]; C. gattii (C751), 30°C, read-out: MIC): ≤0.2 µM | MIC (Cryptococcus gattii [4]; C. gattii (WM275), Sensitive, RPMI 1640 (0.2% Glucose), 37° C.): 0.8 µg/mL | MIC (Cryptococcus gattii [4]; C. gattii (WM276), 30°C, read-out: MIC): 0.9 µM | MIC (Cryptococcus gattii [4]; WM276, 30°C, OD600 48 h): 0.8 µg/mL | MIC (Cryptococcus gattii [4]; WM276, 30°C, OD600 48 h, Table 15, read-out: MIC): 0.9 µM | MFC (Cryptococcus neoformans [5]; C. neoformans (B3501), Sensitive): 0.8 µg/mL (≈ 0.866 µM) | MFC (Cryptococcus neoformans [5]; C. neoformans (C21F3), Rapamycin Resistant): 0.8 µg/mL (≈ 0.866 µM) | MFC (Cryptococcus neoformans [5]; C. neoformans (H99), Sensitive): 1.6 µg/mL (≈ 1.73 µM) | MFC (Cryptococcus neoformans [5]; C. neoformans (JEC21), Sensitive): 0.4 µg/mL (≈ 0.433 µM) | MFC (Cryptococcus gattii [6]; C. gattii (C751)): 0.8 µg/mL (≈ 0.866 µM) | MFC (Cryptococcus gattii [6]; C. gattii (WM275)): 3.1 µg/mL (≈ 3.35 µM) | MIC and MFC values (Candida spp.): sub-μM | MIC (Cryptococcus spp.; Cryptococcus test strains): ~1 µM (≈ 0.924 µg/mL) | MFC (Cryptococcus spp.; Cryptococcus test strains (FLC: all strains except C21F3)): ~1 µM (≈ 0.924 µg/mL)
